These results are taken from US4020150A (priority 1974, dated 1977).

As a reminder, the pKa is the pH at which an ionisable group is half protonated.

For data set [1] the following is noted: cited from earlier work.
Data set [2] deals with P. berghei. To be noted: high doses of PABA, protocol of Rollo.
Data set [3] concerns tumors. The note with it: by itself; cited from earlier work.
Data set [4] concerns Yoshidia sarcoma and other tumors. To be noted: Connors et al.; cited from earlier work.
For data set [5] the following is noted: in water; cited from earlier work.
Data set [6] has as its system Walker tumor. To be noted: rat, in vivo; cited from earlier work.
The subject of data set [7] is burn wounds. The note with it: burn therapy; cited from earlier work.
Data set [8] relates to Walker tumor. To be noted: cited from earlier work.

Take `Nc1ccc(S(=O)(=O)Nc2ncccn2)cc1` [sulfadiazine]: in data set [1] (free acid), the “solubility of free acid” value is listed as “insoluble as a free acid”. In addition, the solubility when ionized result in data set [1] (ionized) is given as “very soluble when ionized”. Also, the “inhibition of activity by PABA” value in data set [2] is recorded as “significantly inhibited by PABA”. Also, the anti-tumor activity result in data set [3] was “not an anti-tumor agent”.
In the case of `Nc1ccc(S(=O)(=O)Nc2nccs2)cc1` [sulfathiazole], the “selective concentration in other transplanted animal tumors” value in data set [4] was “do not concentrate selectively in these tumors”. Moreover, the pKa in data set [5] is 7.1.
On to `Nc1ccc(S(=O)(=O)Nc2cnccn2)cc1` [sulfapyrazine], for which, in data set [6], the “selective deposition/concentration in Walker tumor” value is on record as “selectively deposited in the tumor regions”. For the same compound, the pKa in data set [5] is recorded as 6.0.
Turning to `Nc1ccc(S(=O)(=O)Nc2ncccn2)cc1` [sodium sulfadiazine], the solubility entry in data set [1] (water-soluble) is listed as “water-soluble”. Besides, the “reaction with body fluids / consumption” value in data set [7] was “would be used up rapidly and none would be left after a few days”.
For `N[C@@H](Cc1ccc(N(CCCl)CCCl)cc1)C(=O)O` [melphalan], the “ratio of concentration between the Walker tumor and the liver” value in data set [6] is 1:5. Further, the “effectiveness against the tumor” value in data set [8] is on record as “very effective against the tumor”.
